Where two headings read alike, the source gives them in different places.
Tests used:
Assay type in all cases: biochemical
[1] = molecular target: Bakers yeast α-glucosidase; assay: Yeast α-glucosidase inhibition assay
Method: (§1) Bakers yeast α-glucosidase [EC 3.2.1.20], and porcine pancreatic α-amylase [EC 3.2.1.1]were used during bioassay guided fractionation. Rat intestinal acetone powder was used as a source of mammalian α-glucosidase. The EnzChek® Ultra Amylase Assay kit (E-33651) was purchased from Molecular Probes (Eugene, Oreg., USA).
(§2) In each bioassay the hydrolysis product was measured using the Victor 2 multi-plate reader (Wallac, Turku, Finland) and all samples were tested in duplicate or triplicate. Non-enzyme controls were subtracted from the enzyme absorbance and the percentage inhibition of test samples was calculated as: […]
(§3) :wherein A and B are the absorbance of the hydrolysis product in the absence and presence of inhibitor, respectively. Percent inhibition values were expressed as mean±standard deviation. The IC50 was the concentration required for 50% inhibition of enzyme activity under the assay conditions, and values were calculated using a four-parameter fit by Microsoft Excel Solver.
Yeast α-Glucosidase Inhibition Assay
Extracts and fractions were dissolved in DMSO at 30 mg/mL or 10 mM for pure compounds, and diluted to working concentrations in sodium acetate buffer (pH 5.5). Final sample concentrations were 50 μg/mL, unless otherwise stated. The substrate, 4-methylumbelliferyl-α-D-glucopyranoside (84 μM, 45 μL), was added to 96-well plates containing 50 μL yeast α-glucosidase (3 mU/mL) and 5 μL of sample. The plate was mixed on an orbital shaker for 30 seconds and incubated for 20 minutes at 37° C. The reaction was stopped by the addition of 100 mM sodium-glycine buffer (100 μL, pH 10.6) and the plate was shaken for a further 30 seconds and the fluorescence intensity was measured at λex 355 nm, λem 460 nm. Fucoidan (20 μg/mL) was used as a positive inhibitor control, and sodium acetate buffer as a negative control.

[2] = tested on: rat intestinal α-glucosidase; assay: Mammalian α-glucosidase inhibition assay (rat intestinal acetone powder, maltose substrate)
Method: as §1, §2, §3
Mammalian α-Glucosidase Inhibition Assay
The α-glucosidase inhibitory activity of pure compounds was measured as described previously, with some modifications. The crude enzyme solution was prepared by suspending 50 mg of rat intestinal acetone powder in 0.9% sodium chloride solution (1.5 mL). The mixture was homogenised by sonication in ice-cold water for 10 minutes and then centrifuged at 10,000 g for 30 minutes. The resulting supernatant was used in the assay.
The substrate maltose (3 mM, 20 μL) was added to 96-well plates containing the crude α-glucosidase mixture (20 μL) and sample (10 μL). The microtitre plate was mixed on an orbital shaker for 30 seconds, incubated for 30 minutes at 37° C. and the reaction was stopped by the addition of 2 M Tris buffer (75 μL ). The glucose liberated was measured by adding 30 μL of the reaction mixture to the Glucose Hexokinase assay reagent (170 μL), which was mixed and incubated for 15 minutes at room temperature. The fluorescence of the mixture was measured at λex 340 nm, λem 470 nm.

[3] = molecular target: T1, porcine pancreatic α-amylase (Sus scrofa, UniProt P00690); assay: Porcine α-amylase inhibition assay (EnzChek Ultra Amylase Assay kit)
T1 sequence (P00690 16-511): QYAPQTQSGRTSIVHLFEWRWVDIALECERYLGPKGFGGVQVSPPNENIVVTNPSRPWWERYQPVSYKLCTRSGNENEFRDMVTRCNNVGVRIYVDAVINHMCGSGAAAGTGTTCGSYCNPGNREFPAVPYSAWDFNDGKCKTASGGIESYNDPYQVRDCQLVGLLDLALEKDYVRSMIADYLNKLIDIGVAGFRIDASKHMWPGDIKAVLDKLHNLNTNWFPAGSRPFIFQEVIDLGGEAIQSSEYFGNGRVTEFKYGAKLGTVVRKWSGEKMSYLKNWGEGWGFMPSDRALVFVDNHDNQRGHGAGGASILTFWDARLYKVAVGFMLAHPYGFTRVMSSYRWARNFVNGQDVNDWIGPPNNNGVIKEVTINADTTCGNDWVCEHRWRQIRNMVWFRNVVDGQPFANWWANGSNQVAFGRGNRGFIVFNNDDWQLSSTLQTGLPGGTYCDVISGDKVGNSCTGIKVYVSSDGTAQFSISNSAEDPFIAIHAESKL
Method: Bakers yeast α-glucosidase [EC 3.2.1.20], and porcine pancreatic α-amylase [EC 3.2.1.1]were used during bioassay guided fractionation. Rat intestinal acetone powder was used as a source of mammalian α-glucosidase.
as §2
:wherein A and B are the absorbance of the hydrolysis product in the absence and presence of inhibitor, respectively. Percent inhibition values were expressed as mean±standard deviation.
Porcine α-Amylase Inhibition Assay
This assay was performed using the EnzChek® Ultra Amylase Assay kit. Samples were dissolved in DMSO and diluted with 100 mM of 3-morpholinopropanesulfonic acid (MOPS) buffer (pH 6.9) to give a final concentration of […], unless otherwise stated.

[4] = porcine α-amylase, read-out: Amylase (porcine) IC50

| Molecule | IC50 [1] [µM] | Glucosidase (rat) % Inhibition at 200 μM [2] [%] | IC50 ([3]; Amylase (porcine) IC50, porcine α-amylase) [µM] | IC50 [3, 4] [µM] | Glucosidase (rat) % Inhibition at 200 μM ([2]; 200 µM) [%] | activity against porcine α-amylase, fold greater than acarbose ([3]; relative to acarbose) [fold] | Glucosidase (yeast) IC50 ([1]; unit given in the name cell for fucoidan) [µg/mL] |
| --- | --- | --- | --- | --- | --- | --- | --- |
| COc1cc(-c2cc(=O)c3c(O)cc(O)cc3o2)cc(OC)c1O [Compound 4, Tricin, reference compound] | 70.6 | 16.1 | 104 |  |  |  |  |
| COc1cc(C(OC)C(CO)Oc2c(OC)cc(-c3cc(=O)c4c(O)cc(O)cc4o3)cc2OC)ccc1O (stereo not drawn) [Compound 5, tricin-4′-O-[threo-β-guaiacyl-(7″-O-methyl)-glyceryl]ether] | 95.9 | 6.1 |  | 31.9 |  |  |  |
| COc1cc(C(OC)C(CO)Oc2c(OC)cc(-c3cc(=O)c4c(O)cc(O)cc4o3)cc2OC)ccc1O (stereo not drawn) [Compound 6, tricin-4′-O-[erythro-β-guaiacyl-(7″-O-methyl)-glyceryl]ether] | 72 | 6.1 |  | 26.5 |  |  |  |
| COc1cc(C(O)C(COC(=O)C=Cc2ccc(O)cc2)Oc2c(OC)cc(-c3cc(=O)c4c(O)cc(O)cc4o3)cc2OC)ccc1O (stereo not drawn) [Compound 7, tricin-4′-O-[erythro-β-guaiacyl-(9″-O-p-coumaroyl)-glyceryl]ether] | 37.5 |  |  | 2 | 25.7 |  |  |
| COc1cc(C(O)C(COC(=O)C=Cc2ccc(O)cc2)Oc2c(OC)cc(-c3cc(=O)c4c(O)cc(O)cc4o3)cc2OC)ccc1O (stereo not drawn) [Compound 8, tricin-4′-O-[threo-β-guaiacyl-(9″-O-p-coumaroyl)-glyceryl]ether] | 37.9 |  |  | 0.9 | 10.0 | 130 |  |
| O=c1cc(-c2ccc(O)cc2)oc2cc(O)cc(O)c12 [Compound 18, Apigenin, reference compound] | 108 | −12.2 |  |  |  |  |  |
| O=c1cc(-c2ccc(O)c(O)c2)oc2cc(O)cc(O)c12 [Compound 19, Luteolin, reference compound] | 92.3 | 4.8 |  | 99.5 |  |  |  |
| Fucoidan [reference compound] |  |  |  |  |  |  | 0.82 |
